Tests used:
HTN-CK2α [1] = biological target: T1, HTN-CK2α (Homo sapiens, UniProt P68400); assay: Immunoblot of HTN-CK2α O-GlcNAcylation in HEK293T cells co-expressing fOGT; format: cell-based; settings: co-treated with OGTAC-1
Text: Ck2α is a well-studied OGT substrate.^17,25 Its Ser347 is conservatively O-GlcNAcylated and this modification was reported to affect its kinase activity.^16,17 We first co-expressed HTN-Ck2α and fOGT in HEK293T cells at different ratio and found the basal O-GlcNAcylation level of HTN-Ck2α was higher than what we detected in the case of HTN-BRD4. Therefore, a lower ratio of fOGT expression (1:100) was selected for the assessment of OGTAC potency (FIG. 9). […] The induction of specific O-GlcNAcylation on HTN-Ck2α was further confirmed by mass-shift assay. […] To validate the direct binding to both fOGT and HTN-Ck2α is critical, we exploited AP 1867 and rhodamine ligand, which bind to fOGT and HTN-Ck2α respectively, to co-treat with OGTAC-1.
During immunoblotting study, we noticed that even for whole cell lysate (WCL), RL2 antibody band (green) and HTN-CK2α protein band (red) are perfectly overlapped and clearly distinguishable from other bands on blot (FIG. 6B). We assessed the OGTAC treatment effects by quantifying the RL2 signal that is overlapping with HTN-Ck2α in WCL, and found they are corresponding with the results achieved by IP-WB method (FIG. 6C). Therefore, we quantify the intensity of RL2 band that overlapping with HTN-CK2α level instead of IP CK2α in later study.
For each IP reaction, 2.2×10^6 HEK293T cells were seed in 10 cm dish. After cells attached, transfection reagents and plasmids were prepared and added in DMEM. After 24 h transfection, media were replaced by fresh warm complete media with DMSO or probes. For washout study, after 4 h treatment, media with DMSO or OGTAC-4 (500 nM) were replaced by fresh media with DMSO or AP1867 (50 μM) for further incubation. After certain time of OGTACs treatment, cells were collected by cold PBS and lysed by 200 μL complete IP lysis buffer. The lysate was incubated on ice for 20 min, spun down at 14,000 RPM at 4° C. for 15 mins, and the supernatant were collected for bicinchoninic acid (BCA) assay and normalized to a final 2 mg/mL. For input, 20 μL of diluted sample was reacted with equal volume of 10 μM TMR ligand in IP lysis buffer and rotate gently at RT for 15 mins. The remaining samples were subjected to protein A/G magnetic beads (MedChemExpress, HY-K0202), which pre-binding with protein target protein antibody. For samples for LC-MS/MS or HTN-BRD4 mutant constructs. Halo-Trap Magnetic Agarose (Proteintech, otma) was used to incubate with protein lysates. After gentle rotation at 4° C. for at least 16 h, the beads were washed with IP lysis buffer and boiled in 40 μL 2×SDS-loading buffer (Biorad #1610747) for 5 mins to elute proteins from beads. Eluted samples were directly subjected into WB analysis. To get stronger signal of RL2, we used anti-mouse-HRP (Cell signaling, #7076) as secondary antibody for RL2 and anti-rabbit-DyLight 488 (Invitrogen, #35552) as secondary antibody for total target proteins.
In general, cells (from 12 well plate) were lysed by 80 μl RIPA lysis buffer (Thermo Scientic 89901) supplemented with 20 μM OGA inhibitor (Thaimet G, Bidepharm BD571819) and 100X protease inhibitor (MedChemExpress, HY-K0010), incubated on ice for 20 min, spun down at 14,000 RPM at 4° C. for 15 mins, and the supernatant were collected for bicinchoninic acid (BCA) assay and normalizedeto a final 2 mg/mL concentration. About 30 μg of protein samples were loaded for sodium dodecyl sulfatepolyacrylamide gel electrophoresis (SDS-PADE) and blotted with indicated antibodies.
Target sequence in this assay (P68400 with tags, fused parts or gaps): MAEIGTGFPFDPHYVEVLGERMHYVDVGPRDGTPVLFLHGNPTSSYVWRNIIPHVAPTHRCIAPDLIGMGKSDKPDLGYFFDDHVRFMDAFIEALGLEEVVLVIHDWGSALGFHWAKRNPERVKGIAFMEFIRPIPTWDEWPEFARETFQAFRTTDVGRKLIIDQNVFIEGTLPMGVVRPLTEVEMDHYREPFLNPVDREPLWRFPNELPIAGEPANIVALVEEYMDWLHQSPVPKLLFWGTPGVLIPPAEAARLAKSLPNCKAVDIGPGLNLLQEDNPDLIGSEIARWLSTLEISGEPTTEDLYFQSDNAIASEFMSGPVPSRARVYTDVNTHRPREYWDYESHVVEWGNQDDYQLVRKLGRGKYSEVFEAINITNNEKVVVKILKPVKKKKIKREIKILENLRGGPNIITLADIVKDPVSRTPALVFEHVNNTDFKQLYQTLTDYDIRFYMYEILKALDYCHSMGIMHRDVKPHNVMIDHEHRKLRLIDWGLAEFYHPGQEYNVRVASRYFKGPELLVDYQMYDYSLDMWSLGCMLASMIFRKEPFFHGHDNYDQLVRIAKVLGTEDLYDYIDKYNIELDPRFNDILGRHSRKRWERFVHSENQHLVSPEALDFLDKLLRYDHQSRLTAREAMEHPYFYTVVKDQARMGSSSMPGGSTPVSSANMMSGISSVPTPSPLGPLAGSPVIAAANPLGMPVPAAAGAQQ
Target sequence in this assay (P62942+O15294 fused P62942:F37V partner): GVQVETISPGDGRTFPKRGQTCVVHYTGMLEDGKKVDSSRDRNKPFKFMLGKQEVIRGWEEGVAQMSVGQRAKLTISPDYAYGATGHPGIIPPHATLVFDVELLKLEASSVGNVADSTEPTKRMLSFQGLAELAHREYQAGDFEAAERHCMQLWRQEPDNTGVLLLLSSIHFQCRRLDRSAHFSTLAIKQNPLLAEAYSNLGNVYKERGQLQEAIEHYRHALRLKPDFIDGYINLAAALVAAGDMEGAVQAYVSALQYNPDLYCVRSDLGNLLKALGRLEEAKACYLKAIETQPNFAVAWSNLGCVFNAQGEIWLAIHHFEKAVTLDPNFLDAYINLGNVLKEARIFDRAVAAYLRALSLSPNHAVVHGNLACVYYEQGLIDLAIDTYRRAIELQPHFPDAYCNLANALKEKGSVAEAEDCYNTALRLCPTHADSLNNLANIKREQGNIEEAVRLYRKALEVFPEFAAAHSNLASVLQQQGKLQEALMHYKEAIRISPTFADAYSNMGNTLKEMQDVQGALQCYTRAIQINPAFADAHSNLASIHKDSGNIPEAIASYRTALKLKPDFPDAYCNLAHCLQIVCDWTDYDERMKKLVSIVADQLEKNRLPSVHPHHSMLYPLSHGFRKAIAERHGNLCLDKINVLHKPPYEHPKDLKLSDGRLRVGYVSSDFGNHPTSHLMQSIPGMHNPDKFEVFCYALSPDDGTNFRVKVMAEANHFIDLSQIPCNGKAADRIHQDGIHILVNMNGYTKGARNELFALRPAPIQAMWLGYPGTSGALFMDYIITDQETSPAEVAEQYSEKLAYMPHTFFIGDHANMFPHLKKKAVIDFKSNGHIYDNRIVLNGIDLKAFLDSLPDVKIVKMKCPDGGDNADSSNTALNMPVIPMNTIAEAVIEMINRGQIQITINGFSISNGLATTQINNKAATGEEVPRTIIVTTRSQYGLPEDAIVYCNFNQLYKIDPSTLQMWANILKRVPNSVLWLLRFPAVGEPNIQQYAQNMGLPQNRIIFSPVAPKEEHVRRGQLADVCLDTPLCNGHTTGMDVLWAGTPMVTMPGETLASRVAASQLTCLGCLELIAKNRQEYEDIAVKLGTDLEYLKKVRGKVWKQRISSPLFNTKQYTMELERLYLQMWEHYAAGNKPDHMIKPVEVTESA

FKBP12^F36V = FKBP12^F36V (Homo sapiens, UniProt P62942, F37V); settings: cited from earlier work
HTN-BRD4 and 0tfOGT = biological target: T2, HTN-BRD4 and 0tfOGT (Homo sapiens, UniProt O60885+P62942, F37V); assay: Washout / reversibility study, HTN-BRD4:0tfOGT; format: cell-based; settings: AP1867 50 μM after OGTAC-4 500 nM 4 h
T2 construct: HaloTag fragment; 0TPR(463-1046)-; expressed in transfected cells; host or cells: HEK293T
Experimental: FIGS. 7A-7E: Specificity and reversibility of OGTAC strategy. […] (B), Constructs of fOGT with 13.5 (rounded to 13) TPR and 0TPR-fOGT (0tfOGT). (C). […] (D), Dose-dependent O-GlcNAcylation profile of HTN-BRD4 by OGTAC-4 treatment. HEK293T cells expressing HTN-BRD4:0tfOGT=1:0.05 were treated with an increasing concentration of OGTAC-4 for 4 h. Then, the O-GlcNAcylation level of HTN-BRD4 was assessed by immunoblot after IP using BRD4 antibody. All quantifications are shown as mean±s.e.m. of n=3 biologically independent experiments. (E), Reversible effect of OGTAC-4 on HTN-BRD4 can be achieved by addition of AP1867. HEK293T cells expressing HTN-BRD4:0tfOGT=1:0.05 were pretreated with OGTAC-4 (500 nM) or DMSO for 4 h, and culturing media were replaced by fresh media with DMSO or AP1867 (50 μM) for the indicated time. The quantifications in right panel were conducted by the normalizing the fold-change (OGTAC-4/DMSO) for each post-washout time point to the value of 4 h pre-treatment. All quantifications are shown as mean±s.e.m. of 3 independent biological repeats. Statistical significance was calculated with ordinary one-way ANOVA comparing samples with different transfection conditions or OGTAC-treatment. ns, p≥0.05; *p<0.05; **p<0.01; ***p<0.001; ****p<0.0001.
To assess the potential application of our OGTAC strategy in downstream biological studies, we investigated the reversibility of OGTACs. […] Additionally. the O-GlcNAc level of BRD4 returned to baseline after 6 hours of AP1867 treatment, confirming the reversibility of the induction effect (FIG. 7E).
For each IP reaction, 2.2×10^6 HEK293T cells were seed in 10 cm dish. After cells attached, transfection reagents and plasmids were prepared and added in DMEM. After 24 h transfection, media were replaced by fresh warm complete media with DMSO or probes. For washout study, after 4 h treatment, media with DMSO or OGTAC-4 (500 nM) were replaced by fresh media with DMSO or AP1867 (50 μM) for further incubation. After certain time of OGTACs treatment, cells were collected by cold PBS and lysed by 200 μL complete IP lysis buffer. […]

HTN-CK2α [2] = biological target: T1, HTN-CK2α; assay: O-GlcNAcylation of HTN-CK2α with 0tfOGT; format: cell-based; design: 0TPR(463-1046)-; expressed in transfected cells
Experimental: FIGS. 18A and 18B: Immunoblotting analysis of the global O-GlcNAcylation inducing effect of truncated OGTAC-4 and OGTAC-1 on HTN-BRD4 and HTN-CK2α respectively. (A), O-GlcNAcylation inducing effect of OGTAC-4 is dependent on the expression of 0tfOGT. […] The quantification was conducted by immunoblot signal of probe treatment/control as the mean±s.e.m. of n=2 biologically independent experiments. TR, transfection reagent.
Target sequence in this assay (P68400 with tags, fused parts or gaps): as the sequence (P68400 with tags, fused parts or gaps) above
Target sequence in this assay (P62942+O15294 fused P62942:F37V partner): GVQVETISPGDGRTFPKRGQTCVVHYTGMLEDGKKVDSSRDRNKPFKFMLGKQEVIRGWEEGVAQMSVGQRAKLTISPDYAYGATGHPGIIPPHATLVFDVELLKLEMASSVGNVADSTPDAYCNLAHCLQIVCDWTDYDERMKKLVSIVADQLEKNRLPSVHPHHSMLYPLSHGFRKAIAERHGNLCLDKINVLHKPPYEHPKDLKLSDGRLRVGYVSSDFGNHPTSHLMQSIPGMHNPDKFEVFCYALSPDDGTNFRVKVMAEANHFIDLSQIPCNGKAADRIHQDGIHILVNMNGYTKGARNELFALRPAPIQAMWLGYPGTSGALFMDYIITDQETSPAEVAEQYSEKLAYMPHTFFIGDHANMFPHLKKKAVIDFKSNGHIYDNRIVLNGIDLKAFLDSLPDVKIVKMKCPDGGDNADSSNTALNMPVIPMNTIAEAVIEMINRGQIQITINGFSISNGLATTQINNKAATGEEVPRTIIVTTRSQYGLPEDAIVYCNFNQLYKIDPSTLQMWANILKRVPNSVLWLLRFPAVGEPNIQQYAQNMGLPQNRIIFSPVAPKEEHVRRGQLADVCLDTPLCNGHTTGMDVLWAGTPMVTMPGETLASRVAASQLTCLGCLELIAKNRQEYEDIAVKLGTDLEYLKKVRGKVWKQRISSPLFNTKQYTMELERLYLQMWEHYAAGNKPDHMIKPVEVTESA

[3] = tested on: HTN-BRD4 covalently linked to OGTAC-1

T2 sequence (P62942 whole entry F37V, stated change not applied, other chains not shown, the tested form may be a part): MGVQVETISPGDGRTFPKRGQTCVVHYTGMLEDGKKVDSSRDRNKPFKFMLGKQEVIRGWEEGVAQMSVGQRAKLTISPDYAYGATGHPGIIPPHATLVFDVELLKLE
FKBP12^F36V, sequence (P62942 whole entry F37V): as the sequence (P62942 whole entry F37V, stated change not applied, other chains not shown, the tested form may be a part) above

Molecule: CC[C@H](C(=O)N1CCCC[C@H]1C(=O)O[C@H](CCc1ccc(OC)c(OC)c1)c1cccc(OCC(=O)O)c1)c1cc(OC)c(OC)c(OC)c1 [AP1867, 2-[3-[(1R)-3-(3,4-dimethoxyphenyl)-1-[(2S)-1-[(2S)-2-(3,4,5-trimethoxyphenyl)butanoyl]piperidine-2-carbonyl]oxy-propyl]phenoxy]acetic acid]
- effect of competitor co-treatment on OGTAC-1 induced HTN-CK2α O-GlcNAcylation (HTN-CK2α [1]): abolished the O-GlcNAcylation inducing effects
- Kd (FKBP12^F36V): 1.8 nM
- time for O-GlcNAc level of BRD4 to return to baseline (HTN-BRD4 and 0tfOGT): 6 h
- time to marked decrease in ternary complex formation (HTN-BRD4 and 0tfOGT): ≤ 2 h

Molecule: CCCCCCOCCOCCNC(=O)COc1cccc([C@@H](CCc2ccc(OC)c(OC)c2)OC(=O)[C@@H]2CCCCN2C(=O)[C@@H](CC)c2cc(OC)c(OC)c(OC)c2)c1 [OGTAC-1H, (R)-3-(3,4-dimethoxyphenyl)-1-(3-(2-((2-(2-(hexyloxy)ethoxy)ethyl)amino)-2-oxoethoxy)phenyl)propyl(S)-1-((S)-2-(3,4,5-trimethoxyphenyl)butanoyl)piperidine-2-carboxylate]
- recruitment of 0tfOGT to HTN-CK2α (HTN-CK2α [2]): unable to recruit 0tfOGT to HTN-CK2α

Molecule: CN(C)c1ccc2c(-c3cc(C(=O)NCCOCCOCCCCCCCl)ccc3C(=O)[O-])c3ccc(=[N+](C)C)cc-3oc2c1 [rhodamine ligand, 4-((2-(2-((6-chlorohexyl)oxy)ethoxy)ethyl)carbamoyl)-2-(6-(dimethylamino)-3-(dimethyliminio)-3H-xanthen-9-yl)benzoate, reference compound]
- effect of competitor co-treatment on OGTAC-1 induced HTN-CK2α O-GlcNAcylation (HTN-CK2α [1]): abolished the O-GlcNAcylation inducing effects

Molecule: FKBP12^F36V fused-OGT
- RL2 signal of BRD4 (O-GlcNAcylation of HTN-BRD4, IP-immunoblot) after 2 h of OGTAC-1 640 nM [3]: 2.5-fold increase at 2 h
- RL2 signal of BRD4 (O-GlcNAcylation of HTN-BRD4, IP-immunoblot) after 4 h of OGTAC-1 640 nM [3]: further escalated to around 2.8-fold at 4 h

From US20250035641A1, “COMPOSITIONS AND METHODS RELATED TO PROTEIN LABELING” (The Chinese University of Hong Kong, priority 2023, published 2025)
